Some test systems named below: ACHN renal; CAKI-1 renal; DU-145 prostate; LOX IMVI melanoma; NCI-H226 lung; OVCAR-3 ovarian; OVCAR-5 ovarian; SK-OV-3 ovarian; UACC-257 melanoma; SNB-75 CNS.
Experiment in all cases: NCI tumour cell line growth inhibition, 48 h

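Each compound was tested at five concentrations against cells in 96-well plates for 48 hours. GI50: concentration for 50% inhibition of growth. TGI: total growth inhibition.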 Where only a bound is given, the exact number is not on record here.

As for `COc1ccc(-c2nc(-c3nc4ccc(OC)cc4[nH]3)cc3c2[nH]c2ccccc23)cc1`, the GI50 in the assay with ACHN renal is 2330 nM; with CAKI-1 renal, 6.07 µM; in the assay on DU-145 prostate, 2060 nM; in the assay on LOX IMVI melanoma it was 3140 nM; in the assay with NCI-H226 lung, 4.37 µM; in the assay on OVCAR-3 ovarian, 3510 nM. Moreover, the GI50 in the assay on OVCAR-5 ovarian is over 100000 nM; in the assay with SK-OV-3 ovarian it was over 100000 nM; in the assay with UACC-257 melanoma, 4.34 µM. Also, the TGI in the assay with ACHN renal, in the assay on CAKI-1 renal, in the assay with DU-145 prostate, in the assay with LOX IMVI melanoma, with NCI-H226 lung and in the assay on OVCAR-3 ovarian was over 100 µM each time. Also, the TGI with OVCAR-5 ovarian, in the assay with SK-OV-3 ovarian and in the assay with UACC-257 melanoma was over 100 µM in each case.
For `CCN(CC)C(=O)COc1ccc(Br)cc1Br`, the TGI in the assay with ACHN renal, in the assay on CAKI-1 renal, with LOX IMVI melanoma, with NCI-H226 lung, in the assay with OVCAR-3 ovarian and in the assay with OVCAR-5 ovarian was over 100 µM each time. Further, the TGI in the assay on SK-OV-3 ovarian, with SNB-75 CNS and in the assay with UACC-257 melanoma was over 100 µM each time.
As to `Nc1nc2nc[nH]c2c(=O)[nH]1`, the TGI in the assay on ACHN renal, in the assay on CAKI-1 renal, in the assay with LOX IMVI melanoma, in the assay on NCI-H226 lung, in the assay on OVCAR-3 ovarian and with OVCAR-5 ovarian was over 100 µM throughout. In addition, the TGI in the assay with SK-OV-3 ovarian, in the assay on SNB-75 CNS and in the assay on UACC-257 melanoma was over 100 µM each time.
In the case of `N#CCCN(c1ccc(-c2nnc(NC(=O)CNNC(=O)CC(=O)Nc3ccccc3)s2)cc1)S(=O)(=O)c1ccccc1`, the TGI in the assay with ACHN renal, with CAKI-1 renal, in the assay on LOX IMVI melanoma, in the assay with NCI-H226 lung, with OVCAR-3 ovarian and with OVCAR-5 ovarian was over 100 µM throughout. Further, the TGI with SK-OV-3 ovarian, with SNB-75 CNS and in the assay with UACC-257 melanoma was over 100 µM throughout.
Turning to `O=C(COc1ccccc1)NS(=O)(=O)c1ccccc1`, the TGI in the assay on ACHN renal, in the assay with CAKI-1 renal, in the assay on LOX IMVI melanoma, in the assay on NCI-H226 lung, with OVCAR-3 ovarian and in the assay with OVCAR-5 ovarian was over 100 µM throughout. Besides, the TGI in the assay on SK-OV-3 ovarian, in the assay on SNB-75 CNS and in the assay on UACC-257 melanoma was over 100 µM throughout.
Regarding `O=C1OC(O)C(Oc2ccc(Cl)cc2)=C1Cl` (stereo not given), the TGI with ACHN renal, in the assay on CAKI-1 renal, in the assay on LOX IMVI melanoma, in the assay with NCI-H226 lung, in the assay on OVCAR-3 ovarian and with OVCAR-5 ovarian was over 100 µM throughout. In addition, the TGI in the assay with SK-OV-3 ovarian, in the assay with SNB-75 CNS and in the assay on UACC-257 melanoma was over 100 µM each time.
With `O=C(Nc1nc2ncn(CC(COc3ccccc3)OC(=O)c3ccccc3)c2c(=O)[nH]1)c1ccccc1` (stereo not given), the TGI in the assay on ACHN renal, in the assay on CAKI-1 renal, in the assay on LOX IMVI melanoma, in the assay on NCI-H226 lung, in the assay on OVCAR-3 ovarian and in the assay on OVCAR-5 ovarian was over 100 µM in each case. In addition, the TGI with SK-OV-3 ovarian, in the assay on SNB-75 CNS and in the assay on UACC-257 melanoma was over 100 µM in each case.
In the case of `CC(C)(C)c1ccc(C(O)c2ccc(C(C)(C)C)cc2)cc1`, the TGI with ACHN renal is 30.2 µM; with CAKI-1 renal, 28.4 µM; in the assay with LOX IMVI melanoma, 30.8 µM; with NCI-H226 lung it was 19.5 µM; in the assay on OVCAR-3 ovarian, 27.6 µM; with OVCAR-5 ovarian it was 30.5 µM. In addition, the values for the TGI in the assay with SK-OV-3 ovarian, in the assay with SNB-75 CNS and with UACC-257 melanoma were 27.8 µM, 33.9 µM and 34 µM, respectively.
Take `CC(C)(C)C(=O)C1CC(=O)c2ccccc2C1=O` (stereo not given): the TGI in the assay on ACHN renal was over 100 µM; in the assay with CAKI-1 renal, 84.7 µM; in the assay on LOX IMVI melanoma, over 100 µM; with NCI-H226 lung it was over 100 µM; with OVCAR-3 ovarian, 71.4 µM; in the assay on OVCAR-5 ovarian it was over 100 µM. For the same compound, the TGI in the assay on SK-OV-3 ovarian stood at 75 µM; with SNB-75 CNS it was 31.3 µM; in the assay on UACC-257 melanoma, 46.1 µM.
For the compound `COc1cc2nc(Nc3cccc(F)c3)nc(Nc3cc(C)[nH]n3)c2cc1OC`, the GI50 in the assay with ACHN renal was 1780 nM; with CAKI-1 renal it was 1.76 µM; with DU-145 prostate, 1640 nM; in the assay on LOX IMVI melanoma, 1720 nM; in the assay with OVCAR-3 ovarian, 1820 nM; in the assay on OVCAR-5 ovarian, 1760 nM. The GI50 in the assay on SK-OV-3 ovarian is 1860 nM; in the assay on SNB-75 CNS, 1520 nM; in the assay with UACC-257 melanoma, 1.87 µM. The TGI in the assay on ACHN renal stood at 3.17 µM; in the assay with CAKI-1 renal it was 3.19 µM; in the assay with DU-145 prostate, 3 µM; with LOX IMVI melanoma, 3.11 µM; in the assay on OVCAR-3 ovarian, 3.41 µM; with OVCAR-5 ovarian, 3.2 µM. In addition, the results for the TGI with SK-OV-3 ovarian, in the assay on SNB-75 CNS and in the assay with UACC-257 melanoma were 3.37 µM, 2.95 µM and 3.64 µM, respectively.
For the compound `O=C1CCC2(CC1)SCCCS2`, the TGI in the assay on ACHN renal, in the assay on CAKI-1 renal, in the assay on LOX IMVI melanoma, with NCI-H226 lung, in the assay with OVCAR-3 ovarian and in the assay on OVCAR-5 ovarian was over 100 µM in each case. The TGI with SK-OV-3 ovarian, in the assay on SNB-75 CNS and in the assay on UACC-257 melanoma was over 100 µM throughout.
As to `CC1OC(OCC2COC(O)(Oc3c(-c4ccc(O)c(O)c4)oc4cc(O)cc(O)c4c3=O)C(O)C2O)C(O)C(O)C1O` (stereo not given), the TGI in the assay on ACHN renal, in the assay on CAKI-1 renal, with LOX IMVI melanoma, in the assay on NCI-H226 lung, in the assay with OVCAR-3 ovarian and with OVCAR-5 ovarian was over 100 µM throughout. In addition, the TGI in the assay with SK-OV-3 ovarian, in the assay with SNB-75 CNS and in the assay on UACC-257 melanoma was over 100 µM in each case.
For `NC(=S)N/N=C1/C(=O)N(c2ccc(Cl)cc2Cl)C(=O)C(=O)C1c1nc2ccccc2s1` (stereo not given), the TGI in the assay with ACHN renal, with CAKI-1 renal, in the assay on LOX IMVI melanoma, with NCI-H226 lung, in the assay on OVCAR-3 ovarian and in the assay on OVCAR-5 ovarian was over 100 µM throughout. For the same compound, the TGI in the assay with SK-OV-3 ovarian, in the assay on SNB-75 CNS and in the assay on UACC-257 melanoma was over 100 µM in each case.
